In data set [1] the target is cation transport ATPase in liver mitochondria. Briefly: inhibition of cation transport ATPase in liver mitochondria, in vitro. The class given is biochemical. The text has this:
In yet another aspect, the compounds of this invention are active as inhibitors of the enzyme ATPase. ATPase, an alkali-metal-sensitive enzyme found in cell membranes, is involved in the energy necessary for active transport. "Active transport" refers to the energy-requiring series of operations whereby intracellular and extracellular fluids maintain their compositions. Inhibitors of ATPase reduce the energy required for active transport. Table V summarizes the results of in vitro tests measuring inhibition of cation transport ATPase in liver mitochondria [measured as half effective concentration (Ic 50) in mcg/ml].

The subject of data set [2] is Staphylococcus aureus (H-Heatley strain, NRRL B-314). The data set can be described thus: antibacterial bioassay (J. E. Westhead). The class given is cell-based. An excerpt:
The compounds of this invention are useful antibacterial agents. In this aspect, these compounds may be used in the same manner in which the parent antibiotic is used, as described in U.S. Pat. No. 3,923,823. A bioassay for the antibacterial activity of A-23187 has been described by J. E. Westhead in Antimicrobial Agents and Chemotherapy 11 (5), 916-918 (1977). The test organism for this bioassay is Staphylococcus aureus (H-Heatley strain, NRRL B-314).

Data set [3] relates to isolated guinea-pig atria. The data set can be described thus: cardiac contractility in isolated guinea-pig atria. The note with it: 10^-5 molar. The text has this: The compounds of this invention are also potential cardiotonic agents. […] Response to this test is expressed as a percentage of the maximal contractile tension that could be elicited by a challenge dose of norepinephrine (10^-4 M). For a more detailed description of this test, see U.S. Pat. No. 3,985,893. In this test, 4-bromo-A-23187 free acid and its Mg^++ salt, each at a 10^-5 molar concentration, produced mean increases in contractile tension of 48 and 59 percent, respectively.

Another data set deals with mice. The data set can be described thus: acute toxicity in mice, intraperitoneal. The class given is in vivo. The note with it: intraperitoneally. As for the experimental part: (§1) The compounds of the present invention are, in general, less toxic than the parent antibiotic. Table II summarizes the acute toxicities of representative compounds in mice, expressed as LD50, when the compounds are administered intraperitoneally.

In a further data set the test system is Bovine Sperum. The following applies: bovine sperm; untreated: 2.
For the next data set, the system named is bovine spermatozoa. The data set can be described thus: Ca^++ influx induced in bovine spermatozoa, inhibition by Mg^++. Type of data set: cell-based. The note with it: for Ca^++ Influx: bovine spermatozoa. The text has this:
The compounds of this invention affect ion transport with altered selectivities compared to the parent compound.

A further data set relates to Cuinea Pig Sperm. The data set can be described thus: effect on acrosome reaction, guinea pig sperm. The note with it: untreated: 110. Type of data set: cell-based. An excerpt: Table IV summarizes the effect of an illustrative compound of this invention on mammalian sperm motility and acrosome reaction.
Data set [4] is described as follows: acute toxicity in mice, intraperitoneal. Type of data set: in vivo. The note with it: mouse, in vivo, ip, intraperitoneally. The protocol:
as §1

In data set [5] the test system is mammalian sperm. The note with it: cited from earlier work.
The conditions of data set [6]: cited from earlier work.
The subject of data set [7] is mammalian sperm. The following applies: cited from earlier work. The source holds these as a separate data set.
The mark [8] stands for this setting: ATPase induced by K^+ monazomycin.

“Also recorded” adds a separate entry of the source.

In the case of `CNc1c(Br)cc2oc(CC3OC4(CCC3C)OC(C(C)C(=O)c3cc(Br)c[nH]3)C(C)CC4C)nc2c1C(=O)O` (stereo not drawn) [4,23-dibromo-A-23187 (free acid), 6-bromo-5-(methylamino)-2-[[3β,9α,11β-trimethyl-8-[1α-methyl-2-oxo-2-(4-bromo-1H-pyrrol-2-yl)ethyl]-1,7-dioxaspiro[5.5]undec-2β-yl]methyl]-4-benzoxazolecarboxylic acid], the “half effective concentration (Ic 50)” value in data set [1] (ATPase induced by CaCl2) was determined as 0.9 µg/mL; in [1] (setting [8]) it was 0.5 µg/mL. For the same compound, the Bioassay in [2] was determined as 940 µg/mL.
For `CNc1ccc2oc(CC3OC4(CCC3C)OC(C(C)C(=O)c3cc(Br)c[nH]3)C(C)CC4C)nc2c1C(=O)[O-].CNc1ccc2oc(CC3OC4(CCC3C)OC(C(C)C(=O)c3cc(Br)c[nH]3)C(C)CC4C)nc2c1C(=O)[O-].[Mg+2]` (stereo not drawn) [4-bromo-A-23187 (Mg complex)], the “mean increase in contractile tension, percentage of the maximal contractile tension elicited by norepinephrine (10^-4 M)” value in data set [3] turned out to be 59%. In the data set on mice, this compound came in with an LD50 of 18.75 mg/kg × 1.
Regarding `CNc1c(Br)cc2oc(CC3OC4(CCC3C)OC(C(C)C(=O)c3ccc[nH]3)C(C)CC4C)nc2c1C(=O)O` (stereo not drawn) [4-bromo-A-23187 (free acid), 6-bromo(or chloro)-5-(methylamino)-2-[[3β,9α,-11β-trimethyl-8-[1α-methyl-2-oxo-2-(1H-pyrrol-2-yl)ethyl]-1,7-dioxaspiro[5.5]undec-2β-yl]-methyl]-4-benzoxazolecarboxylic acid], the “half effective concentration (Ic 50)” value in data set [1] (ATPase induced by CaCl2) turned out to be 0.9 µg/mL; in data set [1] (setting [8]) it was 0.3 µg/mL. Further, in the data set on Bovine Sperum, the “Motility Index” value was 5. The compound further gave a Bioassay in data set [2] of 835 µg/mL. The “Ca^++ Influx” value is given as 3.4 nmole Ca^++ min × mg protein in the data set with bovine spermatozoa ([Mg^++ ]/[Ca^++ ] 0), 3.4 nmole Ca^++ min × mg protein in the data set on bovine spermatozoa ([Mg^++ ]/[Ca^++ ] 20), 3.4 nmole Ca^++ min × mg protein in the data set with bovine spermatozoa ([Mg^++ ]/[Ca^++ ] 40) and 0.5 nmole Ca^++ min × mg protein in the data set on bovine spermatozoa ([Mg^++ ]/[Ca^++ ] 80). Besides, the “effectiveness of Mg^++ in inhibiting the induced influx of Ca^++ (in words)” value in the data set on bovine spermatozoa (compared with comparable dosage of A-23187) is “much less effective”. In addition, in the data set with Cuinea Pig Sperm, the “Time Until Acrosome Reaction” value was 30 min. Besides, the activation at 10 µM in data set [3] (Cavia porcellus, read-out: mean increase in contractile tension, percentage of the maximal contractile tension elicited by norepinephrine (10^-4 M)) worked out at 48%. In data set [4], this compound yielded an LD50 of 11.9 mg/kg.
For the compound `CNc1ccc2oc(CC3OC4(CCC3C)OC(C(C)C(=O)c3cc(Cl)c[nH]3)C(C)CC4C)nc2c1C(=O)[O-].CNc1ccc2oc(CC3OC4(CCC3C)OC(C(C)C(=O)c3cc(Cl)c[nH]3)C(C)CC4C)nc2c1C(=O)[O-].[Mg+2]` (stereo not drawn) [4-chloro-A-23187 (Mg complex)], the LD50 in the data set on mice turned out to be 29.8 mg/kg × 1.
Regarding `CNc1c(Cl)cc2oc(CC3OC4(CCC3C)OC(C(C)C(=O)c3ccc[nH]3)C(C)CC4C)nc2c1C(=O)O` (stereo not drawn) [4-chloro-A-23187 (free acid), 6-bromo(or chloro)-5-(methylamino)-2-[[3β,9α,-11β-trimethyl-8-[1α-methyl-2-oxo-2-(1H-pyrrol-2-yl)ethyl]-1,7-dioxaspiro[5.5]undec-2β-yl]-methyl]-4-benzoxazolecarboxylic acid], the “half effective concentration (Ic 50)” value was 10 µg/mL in data set [1] (ATPase induced by CaCl2) and 0.2 µg/mL in [1] (setting [8]). The Bioassay in data set [2] is 298 µg/mL. Moreover, the LD50 in data set [4] was 10.5 mg/kg.
In [2], `CNc1c(Br)cc2oc(CC3OC4(CCC3C)OC(C(C)C(=O)c3[nH]c(Br)c(Br)c3Br)C(C)CC4C)nc2c1C(=O)O` (stereo not drawn) [6-bromo-5-(methylamino)-2-[[3β,9α,11β-trimethyl-8-[1α-methyl-2-oxo-2-(3,4,5-tribromo-1H-pyrrol-2-yl)ethyl]-1,7-dioxaspiro[5.5]undec-2β-yl]methyl]-4-benzoxazolecarboxylic acid] registered a Bioassay of 585 µg/mL.
For `CNc1ccc2oc(CC3OC4(CCC3C)OC(C(C)C(=O)c3ccc[nH]3)C(C)CC4C)nc2c1C(=O)O` (stereo not drawn) [A-23187 (free acid), reference compound], the “half effective concentration (Ic 50)” value in data set [1] (ATPase induced by CaCl2) and in data set [1] (setting [8]) was 0.5 µg/mL in each case. The “Motility Index” value in the data set on Bovine Sperum is 4. This compound showed a Bioassay in [2] of 1060 µg/mL. The “Ca^++ Influx” value with bovine spermatozoa ([Mg^++ ]/[Ca^++ ] 0) is 3.5 nmole Ca^++ min × mg protein; in the data set with bovine spermatozoa ([Mg^++ ]/[Ca^++ ] 5), 2.0 nmole Ca^++ min × mg protein; with bovine spermatozoa ([Mg^++ ]/[Ca^++ ] 10), 1.2 nmole Ca^++ min × mg protein; with bovine spermatozoa ([Mg^++ ]/[Ca^++ ] 20) it was 0.5 nmole Ca^++ min × mg protein. Besides, in the data set on Cuinea Pig Sperm, the “Time Until Acrosome Reaction” value was 30 min. In addition, in the data set on mammalian sperm [5], the “induction of acrosome reaction (in words)” value was “induces the acrosome reaction”. Besides, the “selectivity for transport of divalent over monovalent cations (in words)” value in data set [6] is given as “substantially selective for the transport of divalent over monovalent cations; also recorded: not complete”. The LD50 in data set [4] was found to be 5.8 mg/kg. Besides, the “activation of sperm motility (in words)” value with mammalian sperm [7] is reported as “activates the motility”.

The values above are taken from US4227002A, “Halo-A-23187 derivatives” (Eli Lilly and Company, priority 1978, dated 1980).
